Data as given in patent US11911348B2, “Therapeutic agent for cancer” (THERAVALUES CORPORATION, priority 2014, dated 2024).

Test system: MC38 mouse colon cancer tumor
Experiment: Tumor size of subcutaneously implanted MC38 mouse colon cancer in mice
Assay type: in vivo
From the text: As the test animals, 6-week old […] mice (female, weighed around 20 g, CLEA Japan, Inc.) were purchased, and used after being acclimated to the environment for two to five days. • (2) Transplantation Method
In the right abdomen of the test animals, 5×10^5 mouse colon cancer cell lines (MC38) were subcutaneously implanted by using a 27 G needle. • (3) Administration method
Into the mice (n=[…] to 8) to which the colon cancer cell lines (MC 38) had been inoculated, every day from the 3rd day after the inoculation to the last day of the experiment, 200 μl of a curcumin solution prepared by suspending a commercially available curcumin 10%-containing pharmaceutical preparation (Theracurmin® CR-031P, manufactured by Theravalues Corporation) (Examples 1 to 4) in water or by suspending the synthetic curcumin-HPMC complex prepared as described below (Example 5) in water (prepared so that the curcumin content as 5 mg or 30 mg per 1 kg body weight) was forcibly administered orally to the mice using a feeding needle.
In addition, as so the control groups, a curcumin single administration group (Comparative Examples 1, 4, 6, and 10) in a case where Rat IgG2b (clone: LTF-2 manufactured by Bio X Cell) was intraperitoneally administered in place of the anti-PD-L1 antibody (clone: 10F·9G2 manufactured by Bio X Cell) or the anti-PD-1 antibody (clone: RMP1-14 manufactured by Bio X. Cell); an anti-PD-L1 antibody single administration group (Comparative Examples 2, 5 and 7) in a case where water was administered in place of the curcumin solution, and an anti-PD-L1 antibody was administered; an anti-PD-1 antibody single administration group (Comparative Examples 9 and 11) in a case where water was administered in place of the curcumin solution, and an anti-PD-1 antibody was administered; and a water administration group (Comparative Example 3) in a case where water was administered in place of the curcumin solution, and Rat IgG2b (clone: LTF-2 manufactured by Bio X Cell) was administered in place of the anti-PD-L1 antibody were prepared. • (4) Evaluation of Tumor Size
The tumor size of the test animals was measured by measuring the long diameter and the short diameter of the tumor with a vernier caliper every 2 to 4 days, and calculated by the following equation. Tumor size=the long diameter×the short diameter×the short diameter÷2 (Mathematical Formula 1) • (5) Preparation method of synthetic curcumin-HPMC complex

SMILES: COc1cc(/C=C/C(=O)/C=C(O)/C=C/c2ccc(O)c(OC)c2)ccc1O [curcumin]
- size of the MC38 mouse colon cancer tumor compared with the control (FIG. 3, curcumin 5 mg/kg/mouse singly administered): same size as that of the control
- antiproliferative effect of the colon cancer tumor (FIG. 3, curcumin 5 mg/kg/mouse, anti-PD-L1 antibody on 7th, 10th, 13th days): not recognized
- size of the MC38 mouse colon cancer tumor compared with the control (FIG. 4, curcumin 30 mg/kg/mouse singly administered): same size as that of the control
- antiproliferative effect of the colon cancer tumor (FIG. 4, curcumin 30 mg/kg/mouse, anti-PD-L1 antibody): not recognized
